This assay concerns the target T1, nNOS (Rattus norvegicus, UniProt P29476).
T1 construct: Rat cerebelli were used as the starting tissue; from tissue; host or cells: rat cerebellum (20,000 g supernatant of homogenate)
Nature of the assay: NOS assay (HTS NOS assay, radioactive arginine, filter plate). In kind it is biochemical. To be noted: enzyme preparation from rat cerebelli. As for the experimental part:
This assay allows the determination of the percentage inhibition of NO synthase by an active compound by means of measurement of the NOS activity under the action of the active compound. In this procedure, NO synthase is mixed together with radioactively labelled arginine and the active compound under suitable conditions. After discontinuation of the NO formation reaction at a given point in time, the amount of unreacted arginine is determined directly or indirectly. Comparison of this amount with the amount of arginine which remains in a sample from the mixture of NOS and arginine without the addition of active compound and under otherwise identical conditions gives the % inhibition of NO synthase by the active compound tested. This assay can be carried out as follows:
incubation of NO synthase with labelled arginine as the substrate in a reaction vessel,
separation of the labelled arginine from the labelled citrulline possibly formed as the product of the enzymatic reaction at a point in time at which the concentration of citrulline increases,
measurement of the amount of arginine separated off in the particular case.
The separation is carried out via a filter plate membrane.
This NOS assay is particularly suitable for a “high throughput screening” (HTS) on microtitre plates (MTP).
In this HTS NOS assay, radioactive arginine is used as the substrate. The assay volume can be chosen in the range between 25 μl and 250 μl, depending on the nature of the microtitre plate (MTP). Cofactors and coenzymes are added, depending on the enzyme source used. The incubation of the batches in this microtitre plate (assay MTP) according to step (a) is carried out at room temperature and is between 5 and 60 minutes, depending on the enzyme activity (units) used. At the end of the incubation (step (a)), the plate is placed in a cell harvester equipped with an MTP which has a cation exchange membrane as the filter base (filter MTP). All the batches of the assay MTP are transferred into this filter MTP and filtered with suction over a cation exchanger filter plate, a paper filter loaded with phosphate groups. The filter MTP is then washed with buffer or water. The arginine substrate which remains is bonded to the cation exchanger with the aid of this procedure, while the radioactive citrulline formed enzymatically is washed out quantitatively. After drying of the filter MTP and addition of scintillation liquid, the arginine bonded can be counted on a scintillation counter. A non-inhibited NOS reaction is reflected in a low radioactivity. An inhibited enzyme reaction means that the radioactive arginine has not been reacted, i.e. there is a high radioactivity on the filter.
Arginine, L-[2,3,4-^3H]-monohydrochloride; order no. NET-1123, NEN • CaCl2, anhydrous; order no. 2388.1000; Merck KGaA • 1,4-dithiothreitol (DTT), order no. 708984; ROCHE • Na2EDTA-dihydrate; order no. 03680; FLUKA • HEPES, order no. H-3375; SIGMA • NADPH, tetrasodium salt; order no. 1585363; ROCHE • TRIS; ORDER no. 93349; FLUKA
Enzyme preparation buffer: 50 mM Tris-HCl with 1 mM EDTA: The pH of the buffer was adjusted to 7.4 at 4° C.
Incubation buffer (medium): 50 mM HEPES with 1 mM EDTA; 1.25 mM CaCl2 and 1 mM dithiothreitol.
The pH of the buffer was adjusted to 7.4 at 25° C.
Rat cerebelli were used as the starting tissue. The animals were narcotized and sacrificed, the brain tissue, the cerebellum, was removed, 1 ml of enzyme preparation buffer was added (4° C.) per rat cerebellum and the tissue was broken down with a Polytron homogeniser for 1 min at 6,000 rpm. Centrifugation at 4° C. for 15 min at 20,000 g and subsequent decanting of the supernatant and freezing in portions at −80° C. (precipitate discarded) then took place.
Compounds according to the invention were tested for nNOS inhibition in the NOS assay described above.
As for `COCCOCC(=O)N1CCCC1c1c(-c2ccccc2)c2cc(Cl)ccc2n1C` (centres unmarked) [Example 35, 1-[2-(5-Chloro-1-methyl-3-phenyl-1H-indol-2-yl)-pyrrolidin-1-yl]-2-(2-methoxy-ethoxy)-ethanone], the inhibition at 10 µM was found to be 41%.
Then `CCCCCC(=O)N1CCCC1c1c(-c2ccccc2)c2cc(Cl)ccc2n1CCN(CC)CC` (centres unmarked) [Example 20, 1-{2-[5-Chloro-1-(2-diethylamino-ethyl)-3-phenyl-1H-indol-2-yl]-pyrrolidin-1-yl}-hexan-1-one], with 35%; and `CCOC(=O)CCC(=O)N1CCCC1c1c(-c2ccccc2)c2cc(Cl)ccc2n1CCN(CC)CC` (centres unmarked) [Example 12, 4-{2-[5-Chloro-1-(2-diethylamino-ethyl)-3-phenyl-1H-indol-2-yl]-pyrrolidin-1-yl)-4-oxo-butyric acid ethyl ester], with 34%; and `Cn1c(C2CCCN2C(=O)C2CC2)c(-c2ccccc2)c2cc(Cl)ccc21` (centres unmarked) [Example 48, [2-(5-Chloro-1-methyl-3-phenyl-1H-indol-2-yl)-pyrrolidin-1-yl]-cyclopropyl-methanone], with 35%.
Then `CCN(CC)CCn1c(C2CCCN2C(=O)c2ccco2)c(-c2ccccc2)c2cc(Cl)ccc21` (centres unmarked) [Example 9, {2-[5-Chloro-1-(2-diethylamino-ethyl)-3-phenyl-1H-indol-2-yl]-pyrrolidin-1-yl}-furan-2-yl-methanone], with 45%; and `CCN(CC)CCn1c(C2CCCN2C(=O)c2cc(OC)cc(OC)c2)c(-c2ccccc2)c2cc(Cl)ccc21` (centres unmarked) [Example 26, {2-[5-Chloro-1-(2-diethylamino-ethyl)-3-phenyl-1H-indol-2-yl]-pyrrolidin-1-yl}-(3,5-dimethoxy-phenyl)-methanone], with 51%.
Take `CCN(CC)CCn1c(C2CCCN2C(=O)c2ccc(F)cc2)c(-c2ccccc2)c2cc(Cl)ccc21` (centres unmarked) [Example 13, {2-[5-Chloro-1-(2-diethylamino-ethyl)-3-phenyl-1H-indol-2-yl]-pyrrolidin-1-yl}-(4-fluoro-phenyl)-methanone]: the inhibition at 10 µM was 47%.
Then `CCOc1ccc(C(=O)N2CCCC2c2c(-c3ccccc3)c3cc(Cl)ccc3n2CCN(CC)CC)cc1` (centres unmarked) [Example 28, {2-[5-Chloro-1-(2-diethylamino-ethyl)-3-phenyl-1H-indol-2-yl]-pyrrolidin-1-yl}-(4-ethoxy-phenyl)-methanone], with 41%; and `CCN(CC)CCn1c(C2CCCN2C(=O)C2CCC2)c(-c2ccccc2)c2cc(Cl)ccc21` (centres unmarked) [Example 15, {2-[5-Chloro-1-(2-diethylamino-ethyl)-3-phenyl-1H-indol-2-yl]-pyrrolidin-1-yl}-cyclobutyl-methanone], with 38%.
The value for `CC#CCn1c(C2CCCN2C(=O)COC)c(-c2ccccc2)c2cc(Cl)ccc21` (centres unmarked) [Example 73, 1-[2-(1-But-2-ynyl-5-chloro-3-phenyl-1H-indol-2-yl)-pyrrolidin-1-yl]-2-methoxy-ethanone] was 54%; that for `CCN(CC)CCn1c(C2CCCN2C(=O)c2ccc(Cl)nc2)c(-c2ccccc2)c2cc(Cl)ccc21` (centres unmarked) [Example 17, {2-[5-Chloro-1-(2-diethylamino-ethyl)-3-phenyl-1H-indol-2-yl]-pyrrolidin-1-yl)-(6-chloro-pyridin-3-yl)-methanone] was 36%.

By inhibition is commonly meant the change of the read-out against control, counted positive when it falls.

The record behind these values is patent US7271192B2, “Substituted 2-pyrrolidine-2-yl-1H-indole compounds” (Gruenenthal GmbH, priority 2001, dated 2007).
